According to patent US10799507B2, “5-(7H-pyrrolo[2,3-d]pyrimidin-4-yl)-5-azaspiro[2.5]octane-8-carboxylic acid derivatives as novel JAK kinase inhibitors” (LEO Pharma A/S, priority 2017, dated 2020):

Key:
Type in all cases: biochemical
[1] = target: TYK2 (Homo sapiens (Human), UniProt P29597); assay: JAK kinase assay (HTRF), TYK2; settings: catalytic domain, ATP at Km (13 μM)
Description: (§1) Human baculovirus-expressed JAK1, 2, 3 and TYK2 were purchased from Carna Biosciences, Inc. All four purified enzymes contain only the catalytic domain. JAK1 (aa 850-1154) and TYK2 (aa 871-1187) are expressed with an N-terminally fused GST-tag, and JAK2 and JAK3 with an N-terminally fused His-tag.
(§2) Inhibition of phosphorylation of a synthetic peptide was measured in an HTRF-based assay using the TK substrate-Biotin from the Cisbio HTRFKinEASE TK kit. First, 2 μl of TK solution (TK substrate-biotin in kinase buffer [1× enzymatic buffer from HTRFKinEASE TK kit, 1 mM DTT]) is added to a plate containing 1 μl prediluted compound (final assay concentration DMSO: 0.75%). Then, 5 μl kinase-ATP mix (prepared in kinase buffer) is added to the wells and the plates are incubated at RT for 20-30 min. For all four kinases a concentration of ATP that corresponded to the Km for ATP was used. The final concentrations of buffers, substrate, kinase and ATP were: JAK1: 50 mM Hepes buffer pH 7.0, 0.01% BSA, 10 mM MgCl2, 1 mM DTT, 7 μM ATP, 50 nM SEB, 1 μM TK Substrate-Biotin and 5 ng JAK1; JAK2: 50 mM Hepes buffer pH 7.0, 0.01% BSA, 5 mM MgCl2, 1 mM DTT, 4 μM ATP, 1 μM TK Substrate-Biotin and 0.1 ng JAK2; JAK3: 50 mM Hepes buffer pH 7.0, 0.01% BSA, 5 mM MgCl2, 1 mM DTT, 2 μM ATP, 1 μM TK Substrate-Biotin and 0.3 ng JAK3; TYK2: 50 mM Hepes buffer pH 7.0, 0.01% BSA, 5 mM MgCl2, 1 mM DTT, 13 μM ATP, 50 nM SEB, 1 μM TK Substrate-Biotin and 0.8 ng TYK2. Thereafter, the kinase reaction is stopped by adding 4 μl detection mix (final concentrations: 50 mM Hepes buffer pH 7.0, 0.01% BSA, 0.8 M KF, 20 mM EDTA, 42 nM Streptavidin-XL665 and 1:400 STK Ab Cryptate) and the plates are incubated overnight in the dark. The HTRF signal is read using an Envision plate reader.
(§3) In Table 1 selected JAK kinase inhibitory activities are listed along with analytical tR and observed M+H^+ data (UPLC-MS method 7).

[2] = target: JAK1 (Homo sapiens (Human), UniProt P23458); assay: JAK kinase assay (HTRF), JAK1; settings: catalytic domain, ATP at Km (7 μM)
Chain of JAK1 (P23458 850-1154): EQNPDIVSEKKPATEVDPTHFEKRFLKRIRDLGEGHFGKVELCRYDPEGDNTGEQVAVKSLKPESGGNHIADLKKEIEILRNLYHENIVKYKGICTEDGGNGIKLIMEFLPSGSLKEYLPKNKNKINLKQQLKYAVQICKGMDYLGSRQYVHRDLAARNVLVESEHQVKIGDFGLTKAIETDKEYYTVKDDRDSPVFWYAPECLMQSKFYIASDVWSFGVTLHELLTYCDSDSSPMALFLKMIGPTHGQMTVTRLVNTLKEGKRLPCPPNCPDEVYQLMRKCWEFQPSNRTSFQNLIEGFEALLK
Description: as §1, §2

[3] = target: JAK3 (Homo sapiens (Human), UniProt P52333); assay: JAK kinase assay (HTRF), JAK3; settings: catalytic domain, ATP at Km (2 μM)
Chain of JAK3 (P52333 822-1111): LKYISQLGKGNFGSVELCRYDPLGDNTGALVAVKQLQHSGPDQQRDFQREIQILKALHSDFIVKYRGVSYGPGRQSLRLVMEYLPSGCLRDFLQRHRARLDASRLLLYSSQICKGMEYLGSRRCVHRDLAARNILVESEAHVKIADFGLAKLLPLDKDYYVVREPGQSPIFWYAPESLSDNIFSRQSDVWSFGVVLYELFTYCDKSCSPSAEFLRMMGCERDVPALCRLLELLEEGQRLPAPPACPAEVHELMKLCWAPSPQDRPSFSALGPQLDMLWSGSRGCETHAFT
Description: as §1, §2, §3

[4] = target: JAK2 (Homo sapiens (Human), UniProt O60674); assay: JAK kinase assay (HTRF), JAK2; settings: catalytic domain, ATP at Km (4 μM)
Chain of JAK2 (O60674 849-1124): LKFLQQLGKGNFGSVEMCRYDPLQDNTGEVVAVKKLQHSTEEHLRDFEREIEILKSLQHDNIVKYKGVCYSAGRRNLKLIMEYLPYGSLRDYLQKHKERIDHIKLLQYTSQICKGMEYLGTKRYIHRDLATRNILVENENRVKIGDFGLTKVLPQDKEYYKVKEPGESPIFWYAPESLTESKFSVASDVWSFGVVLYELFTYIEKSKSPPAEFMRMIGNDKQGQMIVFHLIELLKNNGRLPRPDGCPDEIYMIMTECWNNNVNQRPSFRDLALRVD
Description: as §1, §2

Chain of TYK2 (P29597 871-1187): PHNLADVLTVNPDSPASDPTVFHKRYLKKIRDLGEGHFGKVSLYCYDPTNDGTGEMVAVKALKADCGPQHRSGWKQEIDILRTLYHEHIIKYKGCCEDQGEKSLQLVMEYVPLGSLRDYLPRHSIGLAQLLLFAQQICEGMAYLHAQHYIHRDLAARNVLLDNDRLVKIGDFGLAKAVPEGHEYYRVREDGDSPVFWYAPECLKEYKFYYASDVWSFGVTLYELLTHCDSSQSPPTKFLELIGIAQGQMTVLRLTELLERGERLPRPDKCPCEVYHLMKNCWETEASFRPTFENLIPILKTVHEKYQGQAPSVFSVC

Structure (SMILES)	EC50 [1]	EC50 [2]	EC50 [3]	EC50 [4]
N#Cc1cccc([C@H](O)CNC(=O)[C@H]2CCN(c3ncnc4[nH]ccc34)CC23CC3)c1 [Example 106, (8S)-N-[(2S)-2-(3-cyanophenyl)-2-hydroxy-ethyl]-5-(7H-pyrrolo[2,3-d]pyrimidin-4-yl)-5-azaspiro[2.5]octane-8-carboxamide]	110 nM	10.2 nM	44.7 nM	25.2 nM
O=C(N[C@@H](CO)c1ccc(F)cc1CO)[C@H]1CCN(c2ncnc3[nH]ccc23)CC12CC2 [Example 100, (8S)-N-[(1R)-1-[4-fluoro-2-(hydroxymethyl)phenyl]-2-hydroxy-ethyl]-5-(7H-pyrrolo[2,3-d]pyrimidin-4-yl)-5-azaspiro[2.5]octane-8-carboxamide]	248 nM	9.1 nM	71.9 nM	37.3 nM
N#Cc1cccc([C@H](CO)NC(=O)[C@H]2CCN(c3ncnc4[nH]ccc34)CC23CC3)c1 [Example 67, (8S)-N-[(1R)-1-(3-cyanophenyl)-2-hydroxy-ethyl]-5-(7H-pyrrolo[2,3-d]pyrimidin-4-yl)-5-azaspiro[2.5]octane-8-carboxamide]	45 nM	5.1 nM	13.8 nM	5.2 nM
N#C[C@@H]1C[C@H]1CNC(=O)C1CCN(c2ncnc3[nH]ccc23)CC12CC2 (stereo partly drawn) [Example 102, N-[[(1R,2R)-2-cyanocyclopropyl]methyl]-5-(7H-pyrrolo[2,3-d]pyrimidin-4-yl)-5-azaspiro[2.5]octane-8-carboxamide]	531 nM	9.5 nM	35 nM	26.2 nM
COc1cccc(CNC(=O)C2CCN(c3ncnc4[nH]ccc34)CC23CC3)c1 (stereo not drawn) [Example 119, N-[(3-methoxyphenyl)methyl]-5-(7H-pyrrolo[2,3-d]pyrimidin-4-yl)-5-azaspiro[2.5]octane-8-carboxamide]	539 nM	13.4 nM	71.1 nM	36.8 nM
NS(=O)(=O)c1ccc(CNC(=O)C2CCN(c3ncnc4[nH]ccc34)CC23CC3)cc1 (stereo not drawn) [Example 33, 5-(7H-pyrrolo[2,3-d]pyrimidin-4-yl)-N-[(4-sulfamoylphenyl)methyl]-5-azaspiro[2.5]octane-8-carboxamide]	28.9 nM	1.9 nM	6 nM	5 nM
Cc1cc([C@H](O)[C@H](C)NC(=O)[C@H]2CCN(c3ncnc4[nH]ccc34)CC23CC3)ncc1F [Example 75, (8S)-N-[(1S,2R)-2-(5-fluoro-4-methyl-2-pyridyl)-2-hydroxy-1-methyl-ethyl]-5-(7H-pyrrolo[2,3-d]pyrimidin-4-yl)-5-azaspiro[2.5]octane-8-carboxamide]	50.2 nM	6.1 nM	102 nM	16.3 nM
O=C(N[C@H](CO)C(=O)OCc1ccccc1)[C@H]1CCN(c2ncnc3[nH]ccc23)CC12CC2 [Example 80, benzyl (2R)-3-hydroxy-2-[[(8S)-5-(7H-pyrrolo[2,3-d]pyrimidin-4-yl)-5-azaspiro[2.5]octane-8-carbonyl]amino]propanoate]	119 nM	6.7 nM	24.3 nM	21.8 nM
O=C(NCC1CC(F)(F)C1)[C@H](O)CNC(=O)[C@H]1CCN(c2ncnc3[nH]ccc23)CC12CC2 (single isomer, unassigned) [Example 130]	490 nM	23.2 nM	51 nM	45.9 nM
O=C(N[C@@H](CO)Cc1ccccc1)C1CCN(c2ncnc3[nH]ccc23)CC12CC2 (stereo partly drawn) [Example 137, N-[(1R)-1-benzyl-2-hydroxy-ethyl]-5-(7H-pyrrolo[2,3-d]pyrimidin-4-yl)-5-azaspiro[2.5]octane-8-carboxamide]	1380 nM	38 nM	91.6 nM	30.5 nM
O=C(NCc1cccc(F)c1)C1CCN(c2ncnc3[nH]ccc23)CC12CC2 (stereo not drawn) [Example 81, N-[(3-fluorophenyl)methyl]-5-(7H-pyrrolo[2,3-d]pyrimidin-4-yl)-5-azaspiro[2.5]octane-8-carboxamide]	117 nM	6.7 nM	37.7 nM	14.1 nM
O=C(NCc1ccncc1)C1CCN(c2ncnc3[nH]ccc23)CC12CC2 (stereo not drawn) [Example 85, N-(4-pyridylmethyl)-5-(7H-pyrrolo[2,3-d]pyrimidin-4-yl)-5-azaspiro[2.5]octane-8-carboxamide]	798 nM	7.1 nM	42.8 nM	28.7 nM
Cc1cc(F)ccc1[C@H](CO)NC(=O)[C@H]1CCN(c2ncnc3[nH]ccc23)CC12CC2 [Example 77, (8S)-N-[(1R)-1-(4-fluoro-2-methyl-phenyl)-2-hydroxy-ethyl]-5-(7H-pyrrolo[2,3-d]pyrimidin-4-yl)-5-azaspiro[2.5]octane-8-carboxamide]	115 nM	6.2 nM	31.3 nM	16.3 nM
C[C@H](NC(=O)[C@H]1CCN(c2ncnc3[nH]ccc23)CC12CC2)[C@@H](O)c1ccccn1 [Example 104, (8S)-N-[(1S,2R)-2-hydroxy-1-methyl-2-(2-pyridyl)ethyl]-5-(7H-pyrrolo[2,3-d]pyrimidin-4-yl)-5-azaspiro[2.5]octane-8-carboxamide]	149 nM	10.1 nM	163 nM	30.3 nM
O=C(N[C@@H](CO)c1ccccn1)[C@H]1CCN(c2ncnc3[nH]ccc23)CC12CC2 [Example 122, (8S)-N-[(1R)-2-hydroxy-1-(2-pyridyl)ethyl]-5-(7H-pyrrolo[2,3-d]pyrimidin-4-yl)-5-azaspiro[2.5]octane-8-carboxamide]	203 nM	16.3 nM	153 nM	37.3 nM
CCc1cc(C#N)ccc1[C@H](CO)NC(=O)[C@H]1CCN(c2ncnc3[nH]ccc23)CC12CC2 [Example 89, (8S)-N-[(1R)-1-(4-cyano-2-ethyl-phenyl)-2-hydroxy-ethyl]-5-(7H-pyrrolo[2,3-d]pyrimidin-4-yl)-5-azaspiro[2.5]octane-8-carboxamide]	284 nM	7.5 nM	53.7 nM	31 nM
N#C[C@H]1CC[C@H](CNC(=O)C2CCN(c3ncnc4[nH]ccc34)CC23CC3)C1 (stereo partly drawn) [Example 83, N-[[(1S,3S)-3-cyanocyclopentyl]methyl]-5-(7H-pyrrolo[2,3-d]pyrimidin-4-yl)-5-azaspiro[2.5]octane-8-carboxamide]	390 nM	6.8 nM	44.3 nM	22.6 nM
O=C(NCc1ccc(F)cc1)C1CCN(c2ncnc3[nH]ccc23)CC12CC2 (stereo not drawn) [Example 53, N-[(4-fluorophenyl)methyl]-5-(7H-pyrrolo[2,3-d]pyrimidin-4-yl)-5-azaspiro[2.5]octane-8-carboxamide]	106 nM	3.6 nM	20.8 nM	8.9 nM
O=C(NCC1(CO)CC(F)(F)C1)[C@H](O)CNC(=O)[C@H]1CCN(c2ncnc3[nH]ccc23)CC12CC2 [Example 129, (8S)-N-[(2R)-3-[[3,3-difluoro-1-(hydroxymethyl)cyclobutyl]methylamino]-2-hydroxy-3-oxo-propyl]-5-(7H-pyrrolo[2,3-d]pyrimidin-4-yl)-5-azaspiro[2.5]octane-8-carboxamide]	385 nM	21.2 nM	41.1 nM	37.6 nM
CC(CO)(NC(=O)C1CCN(c2ncnc3[nH]ccc23)CC12CC2)c1ccccc1 (stereo not drawn) [Example 118, N-(2-hydroxy-1-methyl-1-phenyl-ethyl)-5-(7H-pyrrolo[2,3-d]pyrimidin-4-yl)-5-azaspiro[2.5]octane-8-carboxamide]	832 nM	13.1 nM	77.7 nM	24.3 nM
NS(=O)(=O)c1cccc(CNC(=O)C2CCN(c3ncnc4[nH]ccc34)CC23CC3)c1 (stereo not drawn) [Example 55, 5-(7H-pyrrolo[2,3-d]pyrimidin-4-yl)-N-[(3-sulfamoylphenyl)methyl]-5-azaspiro[2.5]octane-8-carboxamide]	141 nM	3.7 nM	13.4 nM	18.5 nM
